Measurements: ChEMBL document CHEMBL3351854, “A comprehensive review on synthetic approach for antimalarial agents” (Eur J Med Chem, 2014)

Tests used:
[1] = system: Plasmodium yoelii nigeriensis; experiment: Antimalarial activity against multidrug-resistant Plasmodium yoelii nigeriensis infected mouse assessed as protection at 24 mg/kg for 4 days; type: functional
[2] = system: Plasmodium yoelii nigeriensis; experiment: Antimalarial activity against multidrug-resistant Plasmodium yoelii nigeriensis infected mouse assessed as protection at 12 mg/kg for 4 days; type: functional
Plasmodium falciparum [3] = experiment: Antimalarial activity against Plasmodium falciparum by Heme-HRP assay; type: functional, organism-based
Plasmodium falciparum [4] = experiment: Antimalarial activity against Plasmodium falciparum by culture assay; type: functional, organism-based
Plasmodium falciparum [5] = experiment: Antimalarial activity Plasmodium falciparum NF54; type: functional, organism-based

`C[C@@H]1[C@H]2CC[C@@H](C)[C@@H]3CC[C@]4(C)OO[C@@]23[C@H](C[C@H]1OC(=O)C1c2ccccc2-c2ccccc21)O4` was tested. Which Activity [1] did it give?
The Activity was 100%.

And the Activity [2]?
Its Activity is 80%.

Which results are given for `Fc1ccc(CNCCOCCOCCNc2ccnc3cc(Cl)ccc23)c(F)c1`?
IC50 (Plasmodium falciparum [3]): 60000 nM; IC50 (Plasmodium falciparum [4]): 48 nM

Which IC50 (Plasmodium falciparum [5]) does the source give for `CCOC(=O)CC1CCC2(OCCCC2CC(=O)OCC)OO1` (stereo not given) here?
The IC50 was 160 nM.
